“Also recorded” adds a separate entry of the source.
Assays:
FRDAkd mice = assay: Survival of FRDAkd mice after FXN knockdown (DOX); assay type: in vivo, mouse; details: combination versus individual treatment
Experimental: FIG. 4. […] No mortality was observed FRDAkd mice (DOX) treated with quercetin, taurine, and EGCG. FRDAkd mice were treated with doxycycline (DOX for FXN knockdown) or with doxycycline plus 100 mg/kg/day taurine, 35 mg/kg/day quercetin, and 4.6 mg/kg/day EGCG, and 0.5 mg/kg/day of ferrous sulfate for 16 weeks. N=10 animals per group.

NRF2 [1] = details: FRDA patients with moderate dysfunction (Lynch D R et al. 2021); cited from earlier work
NRF2 [2] = assay: NRF2 expression in tissues of FRDAkd mice (Western blot); assay type: in vivo, mouse; details: for expression of NRF2 (Western blot): 35 mg/kg/day quercetin, 625 mg/kg doxycycline
Experimental: (§1) FIG. 3A-B. Western blot analysis of FXN and NRF2 in FRDA cells and FRDAkd mice after quercetin treatment.
(§2) FIG. 3C-D. Western blot analysis of FXN and NRF2 in FRDA cells and FRDAkd mice after quercetin treatment. […] Tg Low Dox animals were treated with 625 mg/kg doxycycline (FXN knockdown) and Tg Low Dox+Quercetin animal was provided with 625 mg/kg doxycycline plus 35 mg/kg/day of quercetin. […] Overall, quercetin increased the expression of FXN and NRF2 in both in vitro and in vivo conditions.

[3] = previous studies (Lesjak M et al. 2019); cited from earlier work
FXN [4] = assay: FXN expression in FRDA patient fibroblasts (Western blot, qPCR); assay type: cell-based, human
Experimental: FIG. 2A. […] Expression levels were determined using Real-time PCR and normalized to Hprtl. Experiments were conducted in triplicates and values expressed as mean±SEM. One-way ANOVA and 0.05**
(§3) FIG. 2B. […] N=3. One-way ANOVA and Welch's t-test, ±SEM. *p≤0.05, **p≤0.01, ***p 0.001.
as §1, §2

NRF2 [5] = assay: NRF2 expression in FRDA patient fibroblasts (Western blot, qPCR); assay type: cell-based, human
From the text: as §3, §1

FXN [6] = assay: FXN expression in tissues of FRDAkd mice (Western blot); assay type: in vivo, mouse; details: for expression of FXN (Western blot): 35 mg/kg/day quercetin, 625 mg/kg doxycycline
Experimental: as §1, §2

[7] = test system: iron metabolism-related genes; assay: Expression of iron metabolism-related genes in cell lines (Real-time PCR); assay type: cell-based, human; details: various cell lines, including FRDA patient fibroblast cell lines
Experimental: FIG. 2A. Graphs illustrating expression levels of frataxin (FXN) and various iron metabolism-related genes in control fibroblasts (age and sex matched) or fibroblasts from a patient with Friedreich's Ataxia (FRDA) treated with vehicle or 75 μM quercetin. Expression levels were determined using Real-time PCR and normalized to Hprtl. Experiments were conducted in triplicates and values expressed as mean±SEM. One-way ANOVA and 0.05**

FXN [8] = details: phase 3 randomized controlled trial, FRDA; cited from earlier work
[9] = several tissues from quercetin-treated FRDAkd mice (in vivo), summary statement
[10] = FRDA fibroblast cell line, 24 hours quercetin, 75 μM and 100 μM
[11] = FRDA patient fibroblast cell lines (in vitro), summary statement
[12] = fibroblasts from patients with FRDA, quercetin dose series

## O=C(O[C@@H]1Cc2c(O)cc(O)cc2O[C@@H]1c1cc(O)c(O)c(O)c1)c1cc(O)c(O)c(O)c1 [EGCG, (2R,3R)-3′,4′,5,5′,7-Pentahydroxyflavan-3-yl 3,4,5-trihydroxybenzoate]
FRDAkd mice
  survival in mouse FRDA models: did not improve survival rates

## NCCS(=O)(=O)O [taurine, 2-Aminoethane-1-sulfonic acid]
FRDAkd mice
  survival in mouse FRDA models: did not improve survival rates

## CC1(C)CC[C@]2(NC(=O)C(C)(F)F)CC[C@]3(C)[C@H](C(=O)C=C4[C@@]5(C)C=C(C#N)C(=O)C(C)(C)[C@@H]5CC[C@]43C)[C@@H]2C1 [omaveloxolone]
NRF2 [1]
  neurological function: improved

## O=c1c(O)c(-c2ccc(O)c(O)c2)oc2cc(O)cc(O)c12 [quercetin, 3,3′,4′,5,7-Pentahydroxyflavone]
NRF2 [2]; FRDAkd mice heart, eight weeks
  expression of NRF2 (Western blot): Increased expression
NRF2 [2]; FRDAkd mice liver, three weeks
  expression of NRF2 (Western blot): Increased expression
NRF2 [2]; [9]
  NRF2 expression: increase; also recorded: enhanced
[3]
  serum and tissue iron: depletion
FXN [4]; FRDA fibroblast cell line, 24 hours quercetin, 7 μM dose
  expression of FXN (Western blot, independent replication): increased expression
FXN [4]; [10]
  expression of FXN (Western blot): Increased expression
FXN [4]; [11]
  FXN expression: increase; also recorded: enhanced
FXN [4]; [12]
  FXN marker gene expression (qPCR): dose-dependent effects
NRF2 [5]; [10]
  expression of NRF2 (Western blot): Increased expression
NRF2 [5]; [11]
  NRF2 expression: increase; also recorded: enhanced
NRF2 [5]; [12]
  NRF2 marker gene expression (qPCR): dose-dependent effects
FXN [6]; FRDAkd mice heart, eight weeks
  expression of FXN (Western blot): Increased expression
FXN [6]; FRDAkd mice liver, three weeks
  expression of FXN (Western blot): Increased expression
FXN [6]; [9]
  FXN expression: increase; also recorded: enhanced
[7]
  expression of several genes involved in iron metabolism: increase expression
FRDAkd mice
  survival in mouse FRDA models: did not improve survival rates

B1: interferon γ-1b: treatment option for FRDA to increase FXN levels, dropped at phase 3 (protein, UniProt P01579 24-161, looked up)
Interferon gamma: QDPYVKEAENLKKYFNAGHSDVADNGTLFLGILKNWKEESDRKIMQSQIVSFYFKLFKNFKDDQSIQKSVETIKEDMNVKFFNSNKKKRDDFEKLTNYSVTDLNVQRKAIHELIQVMAELSPAAKTGKRKRSQMLFRG
FXN [8]
  outcome measures: failure to show any improvement

Reference: patent publication US20250017958A1, “COMBINATORIAL THERAPEUTIC APPROACH FOR FRIEDREICH'S ATAXIA” (University of Florida Research Foundation, Incorporated, priority 2021, published 2025)
